For 17 compounds, AC50 results are on record in ChEMBL document CHEMBL5291721, “A preclinical secondary pharmacology resource illuminates target-adverse drug reaction associations of marketed drugs” (Nat Commun, 2023).

One experiment concerns the target D(3) dopamine receptor (Homo sapiens, UniProt P35462).
The target of a further experiment is T1, Estrogen receptor (Homo sapiens, UniProt P03372).
T1 sequence (P03372 whole entry): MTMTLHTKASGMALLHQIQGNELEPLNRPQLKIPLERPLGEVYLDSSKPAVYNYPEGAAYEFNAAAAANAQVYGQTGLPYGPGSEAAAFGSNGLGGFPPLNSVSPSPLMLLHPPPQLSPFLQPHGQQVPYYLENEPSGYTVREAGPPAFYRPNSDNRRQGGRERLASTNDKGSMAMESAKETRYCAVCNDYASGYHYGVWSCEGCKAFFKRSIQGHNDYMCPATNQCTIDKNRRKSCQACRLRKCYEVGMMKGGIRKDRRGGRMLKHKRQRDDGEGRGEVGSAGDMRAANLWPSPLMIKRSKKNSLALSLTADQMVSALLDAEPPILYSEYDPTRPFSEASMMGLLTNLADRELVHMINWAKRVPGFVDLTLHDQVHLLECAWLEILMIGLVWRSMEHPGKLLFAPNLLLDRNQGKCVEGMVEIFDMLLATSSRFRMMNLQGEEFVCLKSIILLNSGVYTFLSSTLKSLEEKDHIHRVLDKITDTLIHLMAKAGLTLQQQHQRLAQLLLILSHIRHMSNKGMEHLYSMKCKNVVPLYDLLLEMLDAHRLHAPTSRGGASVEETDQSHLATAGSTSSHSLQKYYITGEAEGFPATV

The target of experiment [1] is Sodium-dependent serotonin transporter (Homo sapiens, UniProt P31645).
A further experiment concerns the target T2, Adenosine receptor A3 (Homo sapiens, UniProt P0DMS8).
T2 sequence (P0DMS8 whole entry): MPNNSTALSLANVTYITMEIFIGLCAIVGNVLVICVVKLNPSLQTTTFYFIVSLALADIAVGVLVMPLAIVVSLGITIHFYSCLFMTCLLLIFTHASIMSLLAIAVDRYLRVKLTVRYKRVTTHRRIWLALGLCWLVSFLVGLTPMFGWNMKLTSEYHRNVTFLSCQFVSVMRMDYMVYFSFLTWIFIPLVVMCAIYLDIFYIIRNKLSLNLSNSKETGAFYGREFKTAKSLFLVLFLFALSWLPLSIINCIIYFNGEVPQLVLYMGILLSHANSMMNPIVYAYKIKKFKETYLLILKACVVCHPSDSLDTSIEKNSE

Experiment [2] deals with T3, Alpha-2A adrenergic receptor (Homo sapiens, UniProt P08913).
T3 sequence (P08913 whole entry): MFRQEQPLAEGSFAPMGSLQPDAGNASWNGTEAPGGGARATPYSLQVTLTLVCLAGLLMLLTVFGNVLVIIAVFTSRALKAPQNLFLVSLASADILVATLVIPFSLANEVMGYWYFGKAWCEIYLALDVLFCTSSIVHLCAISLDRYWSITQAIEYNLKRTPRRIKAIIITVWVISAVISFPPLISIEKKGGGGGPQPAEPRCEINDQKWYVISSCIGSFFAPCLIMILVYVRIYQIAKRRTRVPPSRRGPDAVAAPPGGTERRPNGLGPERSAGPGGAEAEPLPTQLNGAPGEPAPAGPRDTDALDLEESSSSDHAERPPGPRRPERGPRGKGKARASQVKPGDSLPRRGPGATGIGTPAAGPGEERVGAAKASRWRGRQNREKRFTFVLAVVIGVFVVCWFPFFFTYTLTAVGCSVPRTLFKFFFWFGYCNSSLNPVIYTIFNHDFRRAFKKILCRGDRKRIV
The class given is functional, cell-based.

For experiment [3], the target named is Neuronal acetylcholine receptor subunit alpha-4 (Homo sapiens, UniProt P43681).
In experiment [4] the target is Glutamate receptor ionotropic, NMDA 1 (Rattus norvegicus, UniProt P35439).
The target in experiment [5] is Kappa-type opioid receptor (Homo sapiens, UniProt P41145).
In experiment [6] the target is T4, Amine oxidase [flavin-containing] A (Homo sapiens, UniProt P21397).
T4 sequence (P21397 whole entry): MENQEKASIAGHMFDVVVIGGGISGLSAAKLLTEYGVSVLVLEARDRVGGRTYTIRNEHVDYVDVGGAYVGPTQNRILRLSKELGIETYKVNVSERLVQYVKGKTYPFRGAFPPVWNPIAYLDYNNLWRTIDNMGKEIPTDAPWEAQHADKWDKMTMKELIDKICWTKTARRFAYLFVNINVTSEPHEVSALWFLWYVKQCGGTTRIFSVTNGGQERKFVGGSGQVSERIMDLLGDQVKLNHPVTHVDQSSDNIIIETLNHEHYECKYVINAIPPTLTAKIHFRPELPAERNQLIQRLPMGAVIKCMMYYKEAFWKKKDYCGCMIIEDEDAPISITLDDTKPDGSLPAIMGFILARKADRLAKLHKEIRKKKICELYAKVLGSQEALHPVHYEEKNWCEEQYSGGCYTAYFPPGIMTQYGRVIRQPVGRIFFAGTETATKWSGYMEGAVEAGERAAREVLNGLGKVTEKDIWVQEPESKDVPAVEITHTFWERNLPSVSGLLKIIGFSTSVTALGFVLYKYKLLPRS
In kind it is functional.
Also: assay procedure not described here.

Chain of Sodium-dependent serotonin transporter (P31645 whole entry): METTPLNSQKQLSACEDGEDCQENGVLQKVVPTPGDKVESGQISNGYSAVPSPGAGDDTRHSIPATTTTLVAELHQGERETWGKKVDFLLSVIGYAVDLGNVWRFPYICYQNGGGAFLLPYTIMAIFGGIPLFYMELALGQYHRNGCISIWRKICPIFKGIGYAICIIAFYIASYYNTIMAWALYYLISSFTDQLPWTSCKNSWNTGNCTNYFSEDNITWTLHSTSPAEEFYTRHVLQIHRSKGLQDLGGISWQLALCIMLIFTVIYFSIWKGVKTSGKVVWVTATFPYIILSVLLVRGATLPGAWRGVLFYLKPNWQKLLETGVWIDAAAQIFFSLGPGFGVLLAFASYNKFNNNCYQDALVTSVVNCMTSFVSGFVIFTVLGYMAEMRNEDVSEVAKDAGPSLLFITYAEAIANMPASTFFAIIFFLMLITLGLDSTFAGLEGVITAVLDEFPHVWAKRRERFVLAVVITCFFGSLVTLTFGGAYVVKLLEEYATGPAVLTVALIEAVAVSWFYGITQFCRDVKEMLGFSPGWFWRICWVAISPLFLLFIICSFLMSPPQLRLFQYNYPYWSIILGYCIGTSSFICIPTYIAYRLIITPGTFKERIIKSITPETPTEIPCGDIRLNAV
Chain of D(3) dopamine receptor (P35462 whole entry): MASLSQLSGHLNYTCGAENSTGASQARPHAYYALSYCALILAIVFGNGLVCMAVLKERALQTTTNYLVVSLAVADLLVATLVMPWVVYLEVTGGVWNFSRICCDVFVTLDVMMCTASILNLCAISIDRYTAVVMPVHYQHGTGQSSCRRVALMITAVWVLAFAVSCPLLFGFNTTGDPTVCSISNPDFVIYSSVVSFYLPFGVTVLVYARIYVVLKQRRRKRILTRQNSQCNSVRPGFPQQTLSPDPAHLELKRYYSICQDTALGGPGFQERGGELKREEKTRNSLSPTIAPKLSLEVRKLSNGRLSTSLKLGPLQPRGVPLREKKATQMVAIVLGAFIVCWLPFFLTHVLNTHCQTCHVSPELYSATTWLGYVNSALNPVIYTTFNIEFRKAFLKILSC
Chain of Kappa-type opioid receptor (P41145 whole entry): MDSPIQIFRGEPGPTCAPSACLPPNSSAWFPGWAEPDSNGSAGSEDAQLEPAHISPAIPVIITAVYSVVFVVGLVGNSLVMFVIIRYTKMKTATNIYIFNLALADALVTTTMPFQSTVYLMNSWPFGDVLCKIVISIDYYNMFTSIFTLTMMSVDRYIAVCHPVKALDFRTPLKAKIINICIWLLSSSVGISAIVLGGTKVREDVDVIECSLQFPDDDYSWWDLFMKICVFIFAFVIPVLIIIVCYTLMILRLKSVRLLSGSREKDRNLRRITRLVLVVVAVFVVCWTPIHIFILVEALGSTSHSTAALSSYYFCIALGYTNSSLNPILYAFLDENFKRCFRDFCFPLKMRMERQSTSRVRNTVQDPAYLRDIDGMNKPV
Chain of Neuronal acetylcholine receptor subunit alpha-4 (P43681 whole entry): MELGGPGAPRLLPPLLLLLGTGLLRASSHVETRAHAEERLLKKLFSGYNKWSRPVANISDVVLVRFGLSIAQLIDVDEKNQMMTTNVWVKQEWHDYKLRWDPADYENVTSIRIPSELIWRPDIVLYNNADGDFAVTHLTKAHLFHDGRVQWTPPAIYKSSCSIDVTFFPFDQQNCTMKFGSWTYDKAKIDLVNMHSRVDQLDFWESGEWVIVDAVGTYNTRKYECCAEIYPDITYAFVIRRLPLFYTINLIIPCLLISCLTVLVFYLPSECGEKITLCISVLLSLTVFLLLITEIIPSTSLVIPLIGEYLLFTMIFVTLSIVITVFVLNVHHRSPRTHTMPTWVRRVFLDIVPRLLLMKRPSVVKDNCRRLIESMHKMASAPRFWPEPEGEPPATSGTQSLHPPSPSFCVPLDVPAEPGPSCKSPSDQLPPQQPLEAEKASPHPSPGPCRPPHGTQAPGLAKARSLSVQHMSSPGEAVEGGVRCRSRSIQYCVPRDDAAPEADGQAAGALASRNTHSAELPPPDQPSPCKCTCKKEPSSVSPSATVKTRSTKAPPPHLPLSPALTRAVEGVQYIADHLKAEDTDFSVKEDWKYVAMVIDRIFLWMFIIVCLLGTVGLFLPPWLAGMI

On to `O=C(CCC/C=C\C[C@@H]1[C@@H](CC[C@@H](O)CCc2ccccc2)[C@H](O)C[C@@H]1O)OCCCCO[N+](=O)[O-]` [LATANOPROSTENE BUNOD], for which the AC50 (on D(3) dopamine receptor; at Estrogen receptor; in [1]) was greater than 30 µM each time.

For `Cc1oc(=O)oc1COC(=O)[C@@H]1N2C(=O)[C@@H](NC(=O)[C@H](N)c3ccccc3)[C@H]2SC1(C)C` [LENAMPICILLIN], the AC50 (at D(3) dopamine receptor; at Estrogen receptor; in experiment [1]) was greater than 30 µM each time.

Take `COc1ccc(OC)c(C(O)C(C)N)c1` (configuration not stated) [METHOXAMINE]: the half-maximal activity concentration (AC50) (on D(3) dopamine receptor; on Estrogen receptor; in experiment [1]) was greater than 30 µM throughout.

Consider `CC1(CCN2CCCCC2)C(=O)CCc2ccccc21` (configuration not stated) [NEPINALONE], for which the AC50 (at D(3) dopamine receptor; at Estrogen receptor; in experiment [1]) was greater than 30 µM each time.

For `COC(=O)C[C@](O)(CCCC(C)(C)O)C(=O)O[C@@H]1C(OC)=C[C@]23CCCN2CCc2cc4c(cc2[C@H]13)OCO4` [OMACETAXINE MEPESUCCINATE], the AC50 (on D(3) dopamine receptor; at Estrogen receptor; in experiment [1]) was greater than 30 µM each time.

For the compound `CC[N+](C)(CC)CCOC(=O)C(O)(c1ccccc1)C1CCCCC1` (configuration not stated) [OXYPHENONIUM], the AC50 (on D(3) dopamine receptor; at Estrogen receptor; in [1]) was greater than 30 µM throughout.

With `C[C@@H]1C[C@H]2[C@@H]3C[C@H](F)C4=CC(=O)C=C[C@]4(C)[C@H]3[C@@H](O)C[C@]2(C)[C@@]1(O)C(=O)CO` [PARAMETHASONE], the AC50 (on D(3) dopamine receptor; at Estrogen receptor; in [1]) was greater than 30 µM throughout.

As to `CCC[C@H](N[C@@H](C)C(=O)N1[C@H](C(=O)O)C[C@@H]2CCCC[C@@H]21)C(=O)OCC` [PERINDOPRIL], the half-maximal activity concentration (AC50) (on D(3) dopamine receptor; at Estrogen receptor; in experiment [1]) was greater than 30 µM throughout.

`N[C@@H](Cc1ccccc1)C(=O)O` [PHENYLALANINE]: the AC50 (on D(3) dopamine receptor; at Estrogen receptor; in [1]) was greater than 30 µM in each case.

`CCCn1cnc2c1c(=O)n(CCCCC(C)=O)c(=O)n2C` [PROPENTOFYLLINE]: the half-maximal activity concentration (AC50) is greater than 30 µM at D(3) dopamine receptor, 28.9 µM on Estrogen receptor and greater than 30 µM in [1].

Regarding `Clc1ccc(C(Cn2ccnc2)OCc2csc3c(Cl)cccc23)c(Cl)c1` (configuration not stated) [SERTACONAZOLE], the figures for the half-maximal activity concentration (AC50) (on D(3) dopamine receptor; at Estrogen receptor; in experiment [1]) were 1.78 µM, greater than 30 µM and 2.89 µM, respectively.

Regarding `CC(OCCN1CCCCCC1)(c1ccccc1)c1ccc(Cl)cc1` (configuration not stated) [SETASTINE], the AC50 is 0.432 µM on D(3) dopamine receptor, greater than 30 µM on Estrogen receptor and 21 µM in [1].

On to `COc1cc(C)c2c(Oc3cccc(C(F)(F)F)c3)c(OC)cc(NC(C)CCCN)c2n1` (configuration not stated) [TAFENOQUINE], for which the concentration at half-maximal activity (AC50) on D(3) dopamine receptor worked out at 2.57 µM; on Estrogen receptor, 18.4 µM; in experiment [1], 10.3 µM.

Regarding `O=S1(=O)CCN(CN2CCS(=O)(=O)NC2)CN1` [TAUROLIDINE], the AC50 (at Adenosine receptor A3; in [2]; in experiment [3]; on D(3) dopamine receptor; on Estrogen receptor; in experiment [4]) was greater than 30 µM each time. Besides, the AC50 in [5], in experiment [1] and in experiment [6] was greater than 30 µM in each case.

Regarding `CCCSc1nc(N[C@@H]2C[C@H]2c2ccc(F)c(F)c2)c2nnn([C@@H]3C[C@H](OCCO)[C@@H](O)[C@H]3O)c2n1` [TICAGRELOR], the results for the AC50 (at D(3) dopamine receptor; on Estrogen receptor; in [1]) were 20.5 µM, greater than 30 µM and greater than 30 µM, respectively.

Consider `c1ccc2c(SC3=NCCN3)c[nH]c2c1` [TINAZOLINE], for which the AC50 (on D(3) dopamine receptor; at Estrogen receptor; in [1]) was greater than 30 µM in each case.

For `COc1ccc2c(C(=S)N(C)CC(=O)O)cccc2c1C(F)(F)F` [TOLRESTAT], the AC50 (at D(3) dopamine receptor; on Estrogen receptor; in [1]) was greater than 30 µM in each case.
